Experimental data taken from US11071731B2, “Allosteric modulators of the mu opioid receptor” (Chiromics, LLC, priority 2017, dated 2021).
pEC50: −log10 of the molar value.

Tests used:
[1] = molecular target: T1, mu opioid receptor (MOR) (Homo sapiens, UniProt P35372); assay: Hit Hunter cAMP signaling assay (adenylyl cyclase inhibition), PAM mode with EC20 endomorphin-1; format: cell-based
[2] = molecular target: T1, mu opioid receptor (MOR); assay: PathHunter β-arrestin recruitment assay, PAM mode with EC20 endomorphin-1; format: cell-based; conditions: for pEC50: read-out: β-arr. EC50; for inhibition of β-arrestin recruitment at a static concentration of 5 μM: printed in β-arr. EC50 column
Experimental: The effects of MOR PAMs and MOR SAMs on receptor activity were assayed using the PathHunter enzyme complementation assay technology (DiscoveRx, CA). A description of the technology employed is as follows.
Beta-Arrestin Pathway: The PathHunter β-arrestin assay monitors the activation of a GPCR in a homogenous, non-imaging assay format using a technology developed by DiscoveRx called Enzyme Fragment Complementation (EFC) with beta-galactosidase (β-Gal) as the functional reporter. […] EA is fused to β-Arrestin and ED is fused to the GPCR of interest. When the GPCR is activated and β-arrestin is recruited to the receptor, ED and EA complementation occurs, restoring β-gal activity, which is measured using chemiluminescent PathHunter Detection Reagents.
In this manner an EC50 for each test compound, and percent maximal response for each test compound, were determined for both the β-arrestin and cAMP pathways. Though the pharmacological effects of a given signal bias can be hypothesized (Raehal et al. (2011) Pharmacol. Rev. 63:1001-1019), it is not possible to know with certainty which bias ratio will be most advantageous in a clinical setting. […] Kenakin 2015a, supra. The information associated with the compounds detailed herein is the first large data set available for the prediction of ligand bias for an MOR PAM.

[3] = cAMP EC50, adenylyl cyclase inhibition
[4] = maximal response for adenylyl cyclase inhibition
[5] = maximal response for β-arrestin recruitment
[6] = adenylyl cyclase inhibition, read-out: cAMP EC50
[7] = read-out: cAMP EC50, adenylyl cyclase inhibition

T1 sequence (P35372 whole entry): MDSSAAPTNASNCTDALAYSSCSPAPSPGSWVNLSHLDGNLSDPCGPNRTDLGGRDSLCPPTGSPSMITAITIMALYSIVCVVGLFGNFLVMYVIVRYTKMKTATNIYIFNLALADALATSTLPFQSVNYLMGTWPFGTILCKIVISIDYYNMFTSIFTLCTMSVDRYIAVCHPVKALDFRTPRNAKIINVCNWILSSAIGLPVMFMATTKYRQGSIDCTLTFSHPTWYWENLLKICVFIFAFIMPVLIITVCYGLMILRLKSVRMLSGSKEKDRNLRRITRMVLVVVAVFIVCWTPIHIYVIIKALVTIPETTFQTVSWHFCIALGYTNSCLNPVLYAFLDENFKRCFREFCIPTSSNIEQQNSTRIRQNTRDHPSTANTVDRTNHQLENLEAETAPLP

Row | Compound | β-arr Max. Resp. [2, 5] | pEC50 ([2]; β-arrestin recruitment) | inhibition of β-arrestin recruitment at a static concentration of 5 μM [2] | other results
1 | Cc1ncc(F)c(N2CCCCC2c2cccc(F)n2)n1 (stereo not drawn) [compound 270] | D (D represents a maximal response of < 40%) | < 5.68 |  | pEC50 [1, 3]: < 5.68; cAMP Max. Resp. [1, 4]: D (D represents a maximal response of < 40%)
2 | COc1cnc(C2CCCCN2c2nc(Cl)ncc2F)nc1Cl (stereo not drawn) [compound 379] | D (D represents a maximal response of < 40%) | > 6.15 |  | pEC50 [1, 3]: > 6.15; cAMP Max. Resp. [1, 4]: D (D represents a maximal response of < 40%)
3 | OC1CCN(c2nc(Cl)ncc2F)C(c2ccc(F)c(Cl)c2)C1 (stereo not drawn) [compound 293] | F (F represents a maximal response of > 60%) | < 5.68 |  | pEC50 [1, 3]: 5.68 to 6.15; cAMP Max. Resp. [1, 4]: F (F represents a maximal response of > 60%)
4 | COc1ccc(C2CCCCN2S(=O)(=O)c2ccc(F)cc2)cc1Br (stereo not drawn) [compound 13] | F (F represents a maximal response of > 60%) | < 5.68 |  | pEC50 [1, 6]: < 5.68; cAMP Max. Resp. [1, 4]: F (F represents a maximal response of > 60%)
5 | Fc1cnc(Cl)nc1N1CCCCC1c1ccncn1 (stereo not drawn) [compound 391] | D (D represents a maximal response of < 40%) | > 6.15 |  | pEC50 [1, 3]: > 6.15; cAMP Max. Resp. [1, 4]: D (D represents a maximal response of < 40%)
6 | CC(=O)N1CCN(c2nc(Cl)ncc2F)C(c2cc(F)cc(C(F)(F)F)c2)C1 (racemic) [Compound 308] | E (E represents a maximal response of 40-60%) | < 5.68 |  | pEC50 [1, 6]: < 5.68; cAMP Max. Resp. [1, 4]: F (F represents a maximal response of > 60%)
7 | [N-]=[N+]=Nc1cccc(C2CCCCN2Cc2cc(Cl)ccc2F)n1 (stereo not drawn) [compound 144] | E (E represents a maximal response of 40-60%) | < 5.68 |  | pEC50 [1, 3]: < 5.68; cAMP Max. Resp. [1, 4]: D (D represents a maximal response of < 40%)
8 | FC(F)(F)c1cccc(C2CCCCN2c2ccc(Cl)cc2)n1 (stereo not drawn) [compound 454] |  | < 5.68 |  | pEC50 [1, 6]: < 5.68; cAMP Max. Resp. ([1]; maximal response, adenylyl cyclase inhibition): D (D represents a maximal response of < 40%); β-arr Max. Resp. ([2]; maximal response, β-arrestin recruitment): E (E represents a maximal response of 40-60%)
9 | Cc1cnc(N2CCCCC2c2cccc(F)n2)nc1Cl (stereo not drawn) [compound 268] | D (D represents a maximal response of < 40%) | < 5.68 |  | pEC50 [1, 3]: < 5.68; cAMP Max. Resp. [1, 4]: F (F represents a maximal response of > 60%)
10 | N#Cc1cccc(C2CCCCN2S(=O)(=O)c2ccc(Cl)cc2)n1 (stereo not drawn) [compound 47] |  |  | G (G represents < 50% inhibition of β-arrestin recruitment at a static concentration of 5 μM, for compounds that were not tested for adenylyl cyclase inhibition) | 
11 | COc1ccc(C2CCN2S(=O)(=O)c2ccc(Cl)cc2)cc1Br (stereo not drawn) [compound 40] | D (D represents a maximal response of < 40%) | < 5.68 |  | 
12 | FC(F)(F)c1cccc(C2CCCCN2Cc2ccc(Cl)cc2)c1 (stereo not drawn) [compound 140] |  |  | G (G represents < 50% inhibition of β-arrestin recruitment at a static concentration of 5 μM, for compounds that were not tested for adenylyl cyclase inhibition) | 
13 | COc1ccc(C2CC(F)CN2S(=O)(=O)c2ccc(Cl)cc2)cc1Br (single isomer, unassigned) [Compound 112] |  |  | G (G represents < 50% inhibition of β-arrestin recruitment at a static concentration of 5 μM, for compounds that were not tested for adenylyl cyclase inhibition) | 
14 | Fc1cnc(Cl)nc1N1CCCC(F)C1c1cccc(C(F)(F)F)c1 (single isomer, unassigned) [compound 209] |  |  |  | pEC50 [1, 7]: 5.68 to 6.15
15 | O=S(=O)(c1ccc2ccccc2c1)N1CCCCC1c1cccc(C(F)(F)F)c1 (stereo not drawn) [Compound 20] |  |  | G (G represents < 50% inhibition of β-arrestin recruitment at a static concentration of 5 μM, for compounds that were not tested for adenylyl cyclase inhibition) | 
16 | [2H]C1(c2ccc(F)c(Br)c2)C(F)CCCN1S(=O)(=O)Cc1ccc(Cl)c(Cl)c1 (stereo not drawn) [Compound 34] |  |  | G (G represents < 50% inhibition of β-arrestin recruitment at a static concentration of 5 μM, for compounds that were not tested for adenylyl cyclase inhibition) | 
17 | COc1ccc(C2CCCCN2S(=O)(=O)c2ccc(Cl)cc2)cc1Br (racemic) [compound 4] | F (F represents a maximal response of > 60%) | < 5.68 |  | 

Row | Compound | β-arr Max. Resp. [2, 5] | pEC50 ([2]; β-arrestin recruitment) | inhibition of β-arrestin recruitment at a static concentration of 5 μM [2] | other results
18 | COc1ccc(C2CC(F)CN2S(=O)(=O)c2ccc(Cl)cc2)cc1Br (single isomer, unassigned) [Compound 114] | D (D represents a maximal response of < 40%) | < 5.68 |  | 
19 | COc1ccc(C2CC(C(F)(F)F)CN2S(=O)(=O)c2ccc(Cl)cc2)cc1Br (single isomer, unassigned) [Compound 111] | F (F represents a maximal response of > 60%) | < 5.68 |  | 
20 | [2H]C1(c2ccc(F)c(Br)c2)C(F)CCCN1S(=O)(=O)Cc1ccccc1Cl (stereo not drawn) [Compound 36] |  |  | G (G represents < 50% inhibition of β-arrestin recruitment at a static concentration of 5 μM, for compounds that were not tested for adenylyl cyclase inhibition) | 
21 | COc1ccc(C2C(F)CCN2S(=O)(=O)c2ccc(Cl)cc2)cc1Br (stereo not drawn) [Compound 115] | E (E represents a maximal response of 40-60%) | < 5.68 |  | 
22 | COc1ccc(C2C(C(F)(F)F)CCN2S(=O)(=O)c2ccc(Cl)cc2)cc1Br (single isomer, unassigned) [Compound 117] | F (F represents a maximal response of > 60%) | < 5.68 |  | 
23 | [2H]C1(c2ccc(F)c(Br)c2)C(F)CCCN1S(=O)(=O)Cc1ccccc1 (stereo not drawn) [Compound 35] |  |  | G (G represents < 50% inhibition of β-arrestin recruitment at a static concentration of 5 μM, for compounds that were not tested for adenylyl cyclase inhibition) | 
24 | Cc1cccc(C2CCCCN2S(=O)(=O)c2ccc(Cl)cc2)n1 (stereo not drawn) [compound 46] |  |  | G (G represents < 50% inhibition of β-arrestin recruitment at a static concentration of 5 μM, for compounds that were not tested for adenylyl cyclase inhibition) | 
25 | COc1ccc(C2CCCN2S(=O)(=O)c2ccc(Cl)cc2)cc1Br (stereo not drawn) [compound 41] | F (F represents a maximal response of > 60%) | < 5.68 |  | 
26 | Fc1cnc(Cl)nc1N1CCCC(F)C1c1cccc(C(F)(F)F)c1 (single isomer, unassigned) [compound 208] |  |  |  | pEC50 [1, 7]: 5.68 to 6.15
27 | O=S(=O)(c1ccc(Cl)cc1)N1CCCCC1c1ccccn1 (stereo not drawn) [compound 45] |  |  | G (G represents < 50% inhibition of β-arrestin recruitment at a static concentration of 5 μM, for compounds that were not tested for adenylyl cyclase inhibition) | 
28 | COc1ccc(C2N(S(=O)(=O)c3ccc(Cl)cc3)CCC2(F)F)cc1Br (single isomer, unassigned) [Compound 116] | F (F represents a maximal response of > 60%) | < 5.68 |  | 
29 | [2H]C1(c2ccc(F)c(Br)c2)C(F)CCCN1S(=O)(=O)c1ccc2ccccc2c1 (stereo not drawn) [Compound 31] |  |  | G (G represents < 50% inhibition of β-arrestin recruitment at a static concentration of 5 μM, for compounds that were not tested for adenylyl cyclase inhibition) | 
30 | [2H]C1(c2ccc(F)c(Br)c2)C(F)CCCN1S(=O)(=O)c1ccccc1 (stereo not drawn) [Compound 30] |  |  | G (G represents < 50% inhibition of β-arrestin recruitment at a static concentration of 5 μM, for compounds that were not tested for adenylyl cyclase inhibition) | 
31 | O=S(=O)(c1ccccc1)N1CCCCC1c1cccc(C(F)(F)F)c1 (stereo not drawn) [Compound 19] |  |  | G (G represents < 50% inhibition of β-arrestin recruitment at a static concentration of 5 μM, for compounds that were not tested for adenylyl cyclase inhibition) | 
32 | COc1ccc(C2N(S(=O)(=O)c3ccc(Cl)cc3)CCC2(F)F)cc1Br (stereo not drawn) [Compound 113] | F (F represents a maximal response of > 60%) | < 5.68 |  | 
33 | [2H]C1(c2ccc(F)c(Br)c2)C(F)CCCN1S(=O)(=O)c1ccc(OC)cc1 (stereo not drawn) [Compound 39] |  |  | G (G represents < 50% inhibition of β-arrestin recruitment at a static concentration of 5 μM, for compounds that were not tested for adenylyl cyclase inhibition) | 
